Measured values reported in patent publication US12686704B2, “Procoagulant peptides and use thereof” (RAMBAM MED-TECH LTD., priority 2021, dated 2026).

Assays:
[1] = test system: HUVEC cells; test: Immunostaining of heparanase, TF, TFPI and TFPI-2 in HUVECs; assay type: cell-based, human; settings: 10 μg/ml; overnight incubation at 37° C.; vs control cells
Method: FIGS. 6A-6F include micrographs of immunohistochemistry assays showing that heparanase procoagulant peptides increase the level of heparanase in HUVECs. Ten (10) μg/ml of peptide 16 (6B-6C) or 10 μg/ml of peptide 16AC (6E-6F) was added to HUVEC cells and compared to control cells (6A-6D). After 30 min or overnight incubation at 37° C., the cells were fixed using formaldehyde 4%, permeabilized, blocked and reacted with specific heparanase antibody. […] Images were visualized through ×50 magnitude, with 0.82 MDC objective lens, captured with a Nikon E995 digital camera (Nikon, Tokyo, Japan), and processed with Adobe Photoshop software (Adobe Systems, San Jose, CA, USA).
FIGS. 7A-7F include micrographs of immunohistochemistry assays showing that heparanase procoagulant peptides increase the level of TF in HUVECs. Ten (10) μg/ml of peptide 16 (7B-7C) or 10 μg/ml of peptide 16AC (7E-7F) was added to HUVEC cells and compared to control cells (7A-7D). After 30 min or overnight incubation at 37° C., the cells were fixed using formaldehyde 4%, permeabilized, blocked and reacted with specific TF antibody. Images were visualized through ×50 magnitude, with 0.82 MDC objective lens, captured with a Nikon E995 digital camera (Nikon, Tokyo, Japan), and processed with Adobe Photoshop software (Adobe Systems, San Jose, CA, USA).
FIGS. 8A-8F include micrographs of immunohistochemistry assays showing that heparanase procoagulant peptides increase the level of TFPI in HUVECs. Ten (10) μg/ml of peptide 16 (8B-8C) or 10 μg/ml of peptide 16AC (8E-8F) was added to HUVEC cells and compared to control cells (8A-8D). After 30 min or overnight incubation at 37° C., the cells were fixed using formaldehyde 4%, permeabilized, blocked and reacted with specific TFPI-1 antibody. Images were visualized through ×50 magnitude, with 0.82 MDC objective lens, captured with a Nikon E995 digital camera (Nikon, Tokyo, Japan), and processed with Adobe Photoshop software (Adobe Systems, San Jose, CA, USA).
FIGS. 9A-9F include micrographs of immunohistochemistry assays showing that heparanase procoagulant peptides increase the level of TFPI-2 in HUVECs. Ten (10) μg/ml of peptide 16 (9B-9C) or 10 μg/ml of peptide 16AC (9E-9F) was added to HUVEC cells and compared to control cells (9A-9D). After 30 min or overnight incubation at 37° C., the cells were fixed using formaldehyde 4%, permeabilized, blocked and reacted with specific TFPI-2 antibody. Images were visualized through ×50 magnitude, with 0.82 MDC objective lens, captured with a Nikon E995 digital camera (Nikon, Tokyo, Japan), and processed with Adobe Photoshop software (Adobe Systems, San Jose, CA, USA).
Briefly, 10 μg/ml of peptide 16 or 10 μg/ml of peptide 16AC was added to HUVEC cells and compared to control cells (6A-6D). After 30 min or overnight incubation at 37° C., the cells were fixed using formaldehyde 4%, permeabilized, blocked and reacted with specific antibodies targeting heparanase, TF, TFPI-1, and TFPI-2 (FIGS. 6-9, respectively).

[2] = test system: ICR mice; test: Immunostaining of wound skin sections of ICR mice; assay type: in vivo, mouse; settings: subcutaneous opposite to the wound every other day for a week; for expression of heparanase in micro-vessels: FIG. 10A; for expression of TF in micro-vessels: FIG. 10B; for expression of TFPI-1 in micro-vessels: FIG. 10C; for expression of TFPI-2 in micro-vessels: FIG. 10D
Method: FIGS. 10A-10D include micrographs of immunohistochemistry assays showing that heparanase procoagulant peptides increase the level of heparanase, TF, TFPI and TFPI-2. Full thickness incision was made in the back skin of ICR mice. Each group included 5 mice. From the day of surgery either peptide 16 or 16AC was injected subcutaneous opposite to the wound, every other day for a week. At the end of the experiment the mice were sacrificed and the wound skin section was analyzed by immunostaining. […] Images were visualized through ×50 magnitude, with 0.82 MDC objective lens, captured with a Nikon E995 digital camera (Nikon, Tokyo, Japan), and processed with Adobe Photoshop software (Adobe Systems, San Jose, CA, USA).
Briefly, full thickness incision was made in the back skin of ICR mice. Each group included 5 mice. From the day of surgery either peptide 16 or 16AC was injected subcutaneous opposite to the wound, every other day for a week. At the end of the experiment the mice were sacrificed and the wound skin section was analyzed by immunostaining.

[3] = test system: Hemophilic mice (VIII-KO mice); test: Mouse-tail bleeding time model in hemophilic mice; assay type: in vivo; settings: for bleeding time: 150, 225, 300, 375 μg/kg sub-cutis at the flank or topically on the tail, dose dependent, vs PBS control
Method: FIGS. 3A-3D include vertical bar graphs showing that modified heparanase procoagulant peptides of the invention decrease bleeding in hemophilic mice. Hemophilic mice (VIII-KO mice; C57BL/6 background, strain name B6;129S4-F8tm1Kaz/J) were studied. (3A) Peptides 16 or 16AC were injected subcutaneously at the flank in doses 150, 225, 300, 375 μg/kg. A mouse-tail bleeding time model was performed. The peptides were dissolved in phosphate-buffered saline (PBS). Control (0) group was injected with the vehicle phosphate buffered saline (PBS). (3D) is identical to (3A) with the exception that peptide 16 C […] and peptide 16A […] were also administered in the disclosed doses. In a similar study, the peptides were topically applied on the tail immediately following the incision of the tail at a rate of a drop every 5 seconds (3B). […] Mann-Whitney U test was used. Results represent mean±SD. *p<0.05.
Hemophilic mice (VIII-KO mice; C57BL/6 background, strain name B6;129S4-F8tm1Kaz/J) were studied. Peptides 16 or 16AC were injected sub-cutis at the flank in doses 150, 225, 300, 375 μg/kg. A mouse-tail bleeding time model was performed. The peptides were dissolved in phosphate-buffered saline (PBS). Control (0) group was injected with the vehicle phosphate buffered saline (PBS) (FIGS. 3A and 3D). In a similar study, the peptides were topically applied on the tail immediately following the incision of the tail at a rate of a drop every 5 seconds (FIG. 3B).

expression of heparanase in micro-vessels [2] | Substance | TF level (staining) [1] | TFPI level (staining) [1] | TFPI-2 level (staining) [1] | heparanase level (staining) [1] | expression of TF in micro-vessels [2] | expression of TFPI-1 in micro-vessels [2] | expression of TFPI-2 in micro-vessels [2] | bleeding time [3] | bleeding time reduction, comparison between peptides ([3]; subcutaneous 150-375 μg/kg, FIG. 3D)
significant increase in the expression | GSKRRKLRVYLHCT [Peptide 16, peptide comprising the procoagulant domain of heparanase, non-modified] | strong staining after overnight incubation | strong staining after overnight incubation | strong staining after overnight incubation | strong staining after overnight incubation | significant increase in the expression | significant increase in the expression | significant increase in the expression | significant decrease in bleeding time | 
significant increase in the expression | acetyl-GSKRRKLRVYLHCT-amid (Ac-GSKRRKLRVYLHCT-NH2) [Peptide 16AC, peptide 16 comprising a C-terminal amid group and an N-terminal acetyl group] | strong staining after overnight incubation | strong staining after overnight incubation | strong staining after overnight incubation | strong staining after overnight incubation | significant increase in the expression | significant increase in the expression | significant increase in the expression | significant decrease in bleeding time | improved bleeding reduction
